Reference: patent US12122763B2, “Substituted piperidines for androgen receptor degradation” (UBIX THERAPEUTICS, INC., priority 2020, dated 2024)

Target: T1, Androgen Receptor (AR) protein (Homo sapiens, UniProt P10275, T878A)
T1 construct: endogenous in cells; host or cells: LNCaP
Test: Androgen Receptor (AR) protein degradation assay in LNCaP cells, western blotting
Format: cell-based
Details: 20 h; for inhibition at 0.01 µM: 0.01 μM compound; for inhibition at 0.1 µM: 0.1 μM compound; for inhibition at 1 µM: 1 μM compound
Summary of the method: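 AR protein level was detected by western blot (ECL) against GAPDH or β-actin controls, with 8 μg lysate protein loaded per lane after BCA quantification. Lysates came from LNCaP cells exposed to test compound for 20 h, following 3 days of growth in RPMI/10% FBS.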

T1 sequence (P10275 whole entry T878A): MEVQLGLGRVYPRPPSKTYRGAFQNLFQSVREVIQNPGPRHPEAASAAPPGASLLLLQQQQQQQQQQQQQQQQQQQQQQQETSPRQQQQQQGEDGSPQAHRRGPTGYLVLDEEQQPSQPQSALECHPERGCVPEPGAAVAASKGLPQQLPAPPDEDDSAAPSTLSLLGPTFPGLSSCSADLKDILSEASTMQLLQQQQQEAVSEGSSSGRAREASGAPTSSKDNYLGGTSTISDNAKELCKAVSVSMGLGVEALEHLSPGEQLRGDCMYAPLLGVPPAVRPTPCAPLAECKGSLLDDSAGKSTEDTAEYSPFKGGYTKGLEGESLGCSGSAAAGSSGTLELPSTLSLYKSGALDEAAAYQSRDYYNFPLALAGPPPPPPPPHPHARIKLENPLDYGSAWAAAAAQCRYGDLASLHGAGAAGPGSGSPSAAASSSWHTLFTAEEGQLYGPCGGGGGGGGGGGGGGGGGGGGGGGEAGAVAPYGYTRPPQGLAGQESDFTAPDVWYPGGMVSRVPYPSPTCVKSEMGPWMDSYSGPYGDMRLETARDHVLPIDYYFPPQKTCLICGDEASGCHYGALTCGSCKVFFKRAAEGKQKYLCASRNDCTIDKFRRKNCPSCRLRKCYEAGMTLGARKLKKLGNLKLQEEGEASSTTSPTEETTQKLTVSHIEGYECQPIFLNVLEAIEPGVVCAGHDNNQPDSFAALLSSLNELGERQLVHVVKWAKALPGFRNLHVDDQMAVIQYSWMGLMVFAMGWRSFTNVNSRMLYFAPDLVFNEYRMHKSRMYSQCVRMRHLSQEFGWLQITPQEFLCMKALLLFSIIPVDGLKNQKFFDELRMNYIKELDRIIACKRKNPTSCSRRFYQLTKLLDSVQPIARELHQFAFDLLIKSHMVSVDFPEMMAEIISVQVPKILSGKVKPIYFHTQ
T1 sequence (Q96SW2 whole entry partner): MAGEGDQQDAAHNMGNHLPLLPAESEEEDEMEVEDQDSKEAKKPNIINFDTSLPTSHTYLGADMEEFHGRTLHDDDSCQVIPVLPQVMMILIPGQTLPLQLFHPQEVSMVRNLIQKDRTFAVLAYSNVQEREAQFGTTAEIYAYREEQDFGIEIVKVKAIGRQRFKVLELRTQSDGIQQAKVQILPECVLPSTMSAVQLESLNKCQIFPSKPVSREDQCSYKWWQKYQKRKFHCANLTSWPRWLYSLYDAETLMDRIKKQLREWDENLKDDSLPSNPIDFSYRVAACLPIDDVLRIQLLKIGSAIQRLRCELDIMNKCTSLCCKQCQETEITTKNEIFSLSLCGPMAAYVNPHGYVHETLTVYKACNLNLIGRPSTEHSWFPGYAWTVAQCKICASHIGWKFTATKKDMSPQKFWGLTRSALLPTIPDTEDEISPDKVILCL

`N#Cc1ccc(N2CCC(C(=O)Nc3ccc(N4CCC(CN5CCN(C[C@@H]6CCN(c7ccc8c(n7)CN(C7CCC(=O)NC7=O)C8=O)C6)CC5)CC4)cn3)CC2)cc1C(F)(F)F` (stereo partly drawn) [Example 37, 1-(4-cyano-3-(trifluoromethyl)phenyl)-N-(5-(4-((4-(((3S)-1-(6-(2,6-dioxopiperidin-3-yl)-5-oxo-6,7-dihydro-5H-pyrrolo[3,4-b]pyridin-2-yl)pyrrolidin-3-yl)methyl)piperazin-1-yl)methyl)piperidin-1-yl)pyridin-2-yl)piperidine-4-carboxamide] was tested, and the inhibition at 0.01 µM was 51%, the inhibition at 0.1 µM was 93% and the inhibition at 1 µM was 90%.
Work on `N#Cc1ccc(N2CCC(C(=O)Nc3ccc(N4CCC(CN5CCN(C[C@@H]6CCN(c7cc8c(cc7F)C(=O)N(C7CCC(=O)NC7=O)C8=O)C6)CC5)CC4)cn3)CC2)cc1C(F)(F)F` (stereo partly drawn) [Example 38, 1-(4-cyano-3-(trifluoromethyl)phenyl)-N-(5-(4-((4-(((3S)-1-(2-(2,6-dioxopiperidin-3-yl)-6-fluoro-1,3-dioxoisoindolin-5-yl)pyrrolidin-3-yl)methyl)piperazin-1-yl)methyl)piperidin-1-yl)pyridin-2-yl)piperidine-4-carboxamide] yielded an inhibition at 0.01 µM of 44%, an inhibition at 0.1 µM of 93% and an inhibition at 1 µM of 97%.
Work on `N#Cc1ccc(N2CCC(C(=O)Nc3ccc(N4CCC(CN5CCN(C[C@H]6CCN(c7ccc8c(n7)CN(C7CCC(=O)NC7=O)C8=O)C6)CC5)CC4)cn3)CC2)cc1C(F)(F)F` (stereo partly drawn) [Example 39, 1-(4-cyano-3-(trifluoromethyl)phenyl)-N-(5-(4-((4-(((3R)-1-(6-(2,6-dioxopiperidin-3-yl)-5-oxo-6,7-dihydro-5H-pyrrolo[3,4-b]pyridin-2-yl)pyrrolidin-3-yl)methyl)piperazin-1-yl)methyl)piperidin-1-yl)pyridin-2-yl)piperidine-4-carboxamide] yielded an inhibition at 0.01 µM of 80%, an inhibition at 0.1 µM of 98% and an inhibition at 1 µM of 95%.
`C[C@@H]1CN(CC2CCN(c3ccc(NC(=O)C4CCN(c5ccc(C#N)c(C(F)(F)F)c5)CC4)nc3)CC2)CCN1C1CN(c2ccc3c(c2)C(=O)N(C2CCC(=O)NC2=O)C3=O)C1` (stereo partly drawn) [Example 40, 1-(4-cyano-3-(trifluoromethyl)phenyl)-N-(5-(4-(((3R)-4-(1-(2-(2,6-dioxopiperidin-3-yl)-1,3-dioxoisoindolin-5-yl)azetidin-3-yl)-3-methylpiperazin-1-yl)methyl)piperidin-1-yl)pyridin-2-yl)piperidine-4-carboxamide] gave an inhibition at 0.01 µM of 43%, an inhibition at 0.1 µM of 94% and an inhibition at 1 µM of 94%.
Molecule `C[C@@H]1CN(C2CN(c3ccc4c(c3)C(=O)N(C3CCC(=O)NC3=O)C4=O)C2)CCN1CC1CCN(c2ccc(NC(=O)C3CCN(c4ccc(C#N)c(C(F)(F)F)c4)CC3)nc2)CC1` (stereo partly drawn) [Example 41, 1-(4-cyano-3-(trifluoromethyl)phenyl)-N-(5-(4-(((2R)-4-(1-(2-(2,6-dioxopiperidin-3-yl)-1,3-dioxoisoindolin-5-yl)azetidin-3-yl)-2-methylpiperazin-1-yl)methyl)piperidin-1-yl)pyridin-2-yl)piperidine-4-carboxamide] has an inhibition at 0.01 µM of 62%, an inhibition at 0.1 µM of 93% and an inhibition at 1 µM of 86%.
Molecule `C[C@@H]1CN(C2CCN(c3ccc4c(c3)C(=O)N(C3CCC(=O)NC3=O)C4=O)CC2)CCN1CC1CCN(c2ccc(NC(=O)C3CCN(c4ccc(C#N)c(C(F)(F)F)c4)CC3)nc2)CC1` (stereo partly drawn) [Example 42, 1-(4-cyano-3-(trifluoromethyl)phenyl)-N-(5-(4-(((2R)-4-(1-(2-(2,6-dioxopiperidin-3-yl)-1,3-dioxoisoindolin-5-yl)piperidin-4-yl)-2-methylpiperazin-1-yl)methyl)piperidin-1-yl)pyridin-2-yl)piperidine-4-carboxamide] has an inhibition at 0.01 µM of 65%, an inhibition at 0.1 µM of 96% and an inhibition at 1 µM of 94%.
For `C[C@@H]1CN(C2CCN(c3ccc4c(n3)CN(C3CCC(=O)NC3=O)C4=O)CC2)CCN1CC1CCN(c2ccc(NC(=O)C3CCN(c4ccc(C#N)c(C(F)(F)F)c4)CC3)nc2)CC1` (stereo partly drawn) [Example 43, 1-(4-cyano-3-(trifluoromethyl)phenyl)-N-(5-(4-(((2R)-4-(1-(6-(2,6-dioxopiperidin-3-yl)-5-oxo-6,7-dihydro-5H-pyrrolo[3,4-b]pyridin-2-yl)piperidin-4-yl)-2-methylpiperazin-1-yl)methyl)piperidin-1-yl)pyridin-2-yl)piperidine-4-carboxamide], the inhibition at 0.01 µM was 68%, the inhibition at 0.1 µM was 94% and the inhibition at 1 µM was 83%.
In the case of `C[C@@H]1CN(CC2CCN(c3ccc4c(n3)CN(C3CCC(=O)NC3=O)C4=O)CC2)CCN1CC1CCN(c2ccc(NC(=O)C3CCN(c4ccc(C#N)c(C(F)(F)F)c4)CC3)nc2)CC1` (stereo partly drawn) [Example 44, 1-(4-cyano-3-(trifluoromethyl)phenyl)-N-(5-(4-(((2R)-4-((1-(6-(2,6-dioxopiperidin-3-yl)-5-oxo-6,7-dihydro-5H-pyrrolo[3,4-b]pyridin-2-yl)piperidin-4-yl)methyl)-2-methylpiperazin-1-yl)methyl)piperidin-1-yl)pyridin-2-yl)piperidine-4-carboxamide], the inhibition at 0.01 µM is reported as 80%, the inhibition at 0.1 µM is reported as 98% and the inhibition at 1 µM is reported as 93%.
For `C[C@H]1CN(C2CCN(c3ccc4c(n3)CN(C3CCC(=O)NC3=O)C4=O)CC2)CCN1CC1CCN(c2ccc(NC(=O)C3CCN(c4ccc(C#N)c(C(F)(F)F)c4)CC3)nc2)CC1` (stereo partly drawn) [Example 45, 1-(4-cyano-3-(trifluoromethyl)phenyl)-N-(5-(4-(((2S)-4-(1-(6-(2,6-dioxopiperidin-3-yl)-5-oxo-6,7-dihydro-5H-pyrrolo[3,4-b]pyridin-2-yl)piperidin-4-yl)-2-methylpiperazin-1-yl)methyl)piperidin-1-yl)pyridin-2-yl)piperidine-4-carboxamide], the inhibition at 0.01 µM was 66%, the inhibition at 0.1 µM was 95% and the inhibition at 1 µM was 87%.
With `C[C@H]1CN(CC2CCN(c3ccc4c(n3)CN(C3CCC(=O)NC3=O)C4=O)CC2)CCN1CC1CCN(c2ccc(NC(=O)C3CCN(c4ccc(C#N)c(C(F)(F)F)c4)CC3)nc2)CC1` (stereo partly drawn) [Example 46, 1-(4-cyano-3-(trifluoromethyl)phenyl)-N-(5-(4-(((2S)-4-((1-(6-(2,6-dioxopiperidin-3-yl)-5-oxo-6,7-dihydro-5H-pyrrolo[3,4-b]pyridin-2-yl)piperidin-4-yl)methyl)-2-methylpiperazin-1-yl)methyl)piperidin-1-yl)pyridin-2-yl)piperidine-4-carboxamide] the inhibition at 0.01 µM was 70%, the inhibition at 0.1 µM was 97% and the inhibition at 1 µM was 91%.
Work on `C[C@@H]1CN(CC2CCN(c3ccc(NC(=O)C4CCN(c5ccc(C#N)c(C(F)(F)F)c5)CC4)nc3)CC2)CCN1CC1CCN(c2ccc3c(n2)CN(C2CCC(=O)NC2=O)C3=O)CC1` (stereo partly drawn) [Example 47, 1-(4-cyano-3-(trifluoromethyl)phenyl)-N-(5-(4-(((3R)-4-((1-(6-(2,6-dioxopiperidin-3-yl)-5-oxo-6,7-dihydro-5H-pyrrolo[3,4-b]pyridin-2-yl)piperidin-4-yl)methyl)-3-methylpiperazin-1-yl)methyl)piperidin-1-yl)pyridin-2-yl)piperidine-4-carboxamide] yielded an inhibition at 0.01 µM of 65%, an inhibition at 0.1 µM of 95% and an inhibition at 1 µM of 89%.
Molecule `C[C@H]1CN(CC2CCN(c3ccc(NC(=O)C4CCN(c5ccc(C#N)c(C(F)(F)F)c5)CC4)nc3)CC2)CCN1CC1CCN(c2ccc3c(n2)CN(C2CCC(=O)NC2=O)C3=O)CC1` (stereo partly drawn) [Example 48, 1-(4-cyano-3-(trifluoromethyl)phenyl)-N-(5-(4-(((3S)-4-((1-(6-(2,6-dioxopiperidin-3-yl)-5-oxo-6,7-dihydro-5H-pyrrolo[3,4-b]pyridin-2-yl)piperidin-4-yl)methyl)-3-methylpiperazin-1-yl)methyl)piperidin-1-yl)pyridin-2-yl)piperidine-4-carboxamide] has an inhibition at 0.01 µM of 59%, an inhibition at 0.1 µM of 94% and an inhibition at 1 µM of 87%.
For `N#Cc1ccc(N2CCC(C(=O)Nc3ccc(N4CCC(CN5CC6(CCN(c7ccc8c(c7)C(=O)N(C7CCC(=O)NC7=O)C8=O)CC6)C5)CC4)cn3)CC2)cc1Cl` (stereo not shown) [Example 50, 1-(3-chloro-4-cyanophenyl)-N-(5-(4-((7-(2-(2,6-dioxopiperidin-3-yl)-1,3-dioxoisoindolin-5-yl)-2,7-diazaspiro[3.5]nonan-2-yl)methyl)piperidin-1-yl)pyridin-2-yl)piperidine-4-carboxamide], the inhibition at 0.01 µM was 61%, the inhibition at 0.1 µM was 97% and the inhibition at 1 µM was 99%. The inhibition at 10 µM (10 μM compound) was 98%.
`CC1(C(=O)Nc2ccc(N3CCC(CN4CC5(CCN(c6ccc7c(c6)C(=O)N(C6CCC(=O)NC6=O)C7=O)CC5)C4)CC3)cn2)CCN(c2ccc(C#N)c(C(F)(F)F)c2)CC1` (stereo not shown) [Example 51, 1-(4-cyano-3-(trifluoromethyl)phenyl)-N-(5-(4-((7-(2-(2,6-dioxopiperidin-3-yl)-1,3-dioxoisoindolin-5-yl)-2,7-diazaspiro[3.5]nonan-2-yl)methyl)piperidin-1-yl)pyridin-2-yl)-4-methylpiperidine-4-carboxamide] gave an inhibition at 0.01 µM of 33%, an inhibition at 0.1 µM of 85% and an inhibition at 1 µM of 94%.
`N#Cc1ccc(N2CCC(C(=O)Nc3ccc(N4CCC(CN5CC6(CCN(c7ccc8c(=O)n(C9CCC(=O)NC9=O)nnc8c7)CC6)C5)CC4)cn3)CC2)cc1C(F)(F)F` (stereo not shown) [Example 52, 1-(4-cyano-3-(trifluoromethyl)phenyl)-N-(5-(4-((7-(3-(2,6-dioxopiperidin-3-yl)-4-oxo-3,4-dihydrobenzo[d][1,2,3]triazin-7-yl)-2,7-diazaspiro[3.5]nonan-2-yl)methyl)piperidin-1-yl)pyridin-2-yl)piperidine-4-carboxamide] was tested, and the inhibition at 0.01 µM was 50%, the inhibition at 0.1 µM was 91% and the inhibition at 1 µM was 97%.
